* marks the point of attachment. NOTA = O=C(O)CN1CCN(CC(=O)O)CCN(CC(=O)*)CC1
Target: T1, granzyme B (Mus musculus, UniProt P04187)
T1 construct: from tissue; host or cells: intracranial GSC005-luc tumour in C57BL/6 mice; granzyme B comes from the host's cytotoxic immune cells
T1 sequence (P04187 21-247): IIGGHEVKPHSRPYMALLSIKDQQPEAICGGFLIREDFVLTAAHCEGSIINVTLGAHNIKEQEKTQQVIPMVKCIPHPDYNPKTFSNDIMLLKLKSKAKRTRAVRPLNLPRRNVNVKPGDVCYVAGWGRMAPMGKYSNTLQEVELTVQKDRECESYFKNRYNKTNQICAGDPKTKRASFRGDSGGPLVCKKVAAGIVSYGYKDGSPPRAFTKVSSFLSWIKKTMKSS
Type: in vivo, mouse (C57BL/6, orthotopic GSC005-luc GBM)
Excerpt: Dynamic [^64Cu]-NOTA-GZP PET was collected using a preclinical small animal PET/CT imaging system (GNEXT, Sofie Bioscience, Culver City, CA) seven days from the start of therapy. Scan consisted of an 80-min list-mode acquisition, with 100 ± 10 μCi (3.7 ± 0.37 MBq) of [^64Cu]-NOTA-GZP being administered via tail-vein catheter followed by a saline flush. Subsequently, a 5-min computed tomography (CT, voltage, 80 kVp; current, 150 μA) scan was collected for anatomical reference. A subset of mice (N = 5 treatment, 3 controls) was humanely euthanized, and brains were excised for a 1 h ex vivo PET/CT brain scan and, upon completion, placed in formalin and fixed overnight. Remaining mice were monitored longitudinally for survival.
Dynamic PET data was reconstructed using a 3D ordered-subset expectation maximization algorithm (24 subsets, 3 iterations) with a reconstructed voxel size of 0.5 × 0.5 × 0.5 mm^3 based on a 12 × 10 s, 6 × 30 s, 5 × 60 s, 10 × 300 s, 1 × 1200 s framing sequence (Figure 2A). PET sequences were rigidly registered to the reference anatomical CT scan. Voxel-wise conversion to standardized uptake value (SUV) was then performed based on the following equation:
GSC005-luc orthotopic mouse models were developed and treated with single dose M002 followed by a dose of anti-PD1 on days 1, 4 and 7 (N = 22), or saline at similar timepoints (N = 9). 80-min dynamic [^64Cu]-NOTA-GZP PET/CT scans were performed at day 4 and 7 following treatment, with tumor and contralateral brain time activity curves being fitted to a 2TCM as selected based on prior comparative assessment. Metrics for average SUV, k1, k2, k3 and k4 were quantified on the tumor region with additional normalization to contralateral healthy brain (TBR).
In addition, anatomical MRI scans were collected prior to the start of treatment (D-1), and at days 3, 6 and 13 following treatment for anatomical PET/CT reference and monitoring of tumor volumes. Longitudinal monitoring was performed via BLI every three days. […] Response was defined based on a threshold of less than 20% increase in BLI signal one month following initial immunotherapy administration as previously reported.

- k3 (tracer binding rate), contralateral brain (2TCM, combination immunotherapy-treated mice, four days following therapy, contralateral brain): 0.04 ± 0.05 min⁻¹
- k3 (tracer binding rate), tumor (2TCM, combination immunotherapy-treated mice, four days following therapy, tumor): 0.13 ± 0.8 min⁻¹
Substance: {NOTA}-AGGIEFD-aldehyde [[^64Cu]-NOTA-GZP, NOTA-Ala-Gly-Gly-Ile-Glu-Phe-Asp-CHO (NOTA-GZP) radiolabeled with ^64Cu; granzyme B specific PET imaging agent]
- SUV TBR (mouse, in vivo): 2.50 ± 1.68
- k1 TBR (mouse, in vivo): 1.18 ± 0.75
